From US20120265121A1, “PHTHALOCYANINE-BASED ANTIFUNGAL AGENTS” (CASE WESTERN RESERVE UNIVERSITY, priority 2011, published 2012)

What was measured:
[1] = mice, delivered systemically; cited from earlier work
[2] = tested on: C. albicans (strain SC-5134); experiment: FUN-1 fluorescence metabolic activity assay (confocal); format: cell-based, Candida albicans; settings: 1.0 μM Pc 4, 2.0 J/cm^2, vs cells exposed to Pc 4 but not irradiated
Description: Pc 4-Photodynamic Treatment Conditions: The phthalocyanine photosensitizer Pc 4 was kindly provided by Dr. Malcolm E. Kenney (Department of Chemistry, Case Western Reserve University, Cleveland, Ohio, USA). Stock solutions (0.5 mM) of Pc 4 were prepared in N′,N′-dimethylformamide (DMF, ThermoFisher, Waltham, Mass., USA) and stored at 4° C. in the dark. C. albicans cultures were incubated with Pc 4 concentrations ranging from 0.1 to 1.0 μM in 1× PBS containing 10% FBS for at least 1 hr at 37° C. in the dark and subsequently irradiated with red light using a light-emitting diode array (EFOS, Mississauga, Ontario, Canada) at a fluence ranging from 1.0 to 2.0 J/cm^2 (1.0 mW/cm^2, λmax ˜670-675 nm) at room temperature. […] The absorbance of the resulting orange solution was measured using a spectrophotometer (Spectronic Genesys 5, Analytical Instrument, Golden Valley, Minn., USA) at 492 nm. […] FUN-1 fluorescence was excited using solid state diode lasers (488 nm) and collected with a 580-650 nm band pass emission filter.

CN(C)CCC[Si](C)(C)O[Si]1(O)n2c3c4ccccc4c2N=C2N=C(N=c4c5ccccc5c(n41)=NC1=NC(=N3)c3ccccc31)c1ccccc12 (centres unmarked) [Pc 4, HOSiPcOSi(CH3)2(CH2)3N(CH3)2]
clearance compared with Photofrin [1]: much more rapidly cleared than Photofrin | FUN-1 fluorescence [2]: much reduced FUN-1 fluorescence
